What was measured:
[1] = tested on: human Fcγ receptors (FcγRIa, FcγRIIa, FcγRIIb, FcγRIIIa); experiment: FcγR binding ELISA, panel of human Fcγ receptors; conditions: cross-linked antibody
Procedure: FIG. 10 provides graphs and immunocytochemical images corresponding to the experiments described in Example 6.5. […] These findings are consistent with published data for human IgG4 antibodies (Gessner et al., 1998) and IgG1 antibodies carrying the D265A mutation (Shields et al., 2001).
(§1) The binding of test antibodies to a panel of human Fcγ receptors (FcγRs) was measured using enzyme-linked immunosorbent assay (ELISA). Human FcγRs (Genentech, Inc., CA) are fusion proteins containing the extracellular domain of the receptor γ-chain with a Gly/6xHis/glutathione S transferase (GST) polypeptide tag at the C terminus. A monoclonal antibody with human IgG1 framework was used as the positive control (IgG1 control) in this experiment. Plates were coated with a mouse monoclonal anti GST antibody (Genentech, Inc.) in a 0.05 M sodium carbonate buffer (pH 9.6) overnight at 4° C. After blocking with an assay buffer containing phosphate buffered saline (PBS), 0.5% BSA, and 0.05% Tween-20, the plates were incubated with FcγRs at room temperature for 1 h. Human FcγRs were immobilized to the plate via interaction with the anti-GST coating. […] Diluted samples were applied as monomeric forms for the high affinity receptor (FcγRIa), or multimeric forms for the low affinity receptors (FcγRIIa, FcγRIIb, and FcγRIIIa). The multimeric forms of test antibodies were generated by cross linking F(ab′)2 fragment of goat anti human κ-chain (MP Biomedicals, Solon, Ohio), with test monoclonal antibody at an approximate molar ratio of 3:1. The plates were incubated with FcγRs at room temperature for 2 h. […] The antibodies bound to the FcγRs were detected with horseradish peroxidase (HRP)-conjugated F(ab′)2 fragment of goat anti human F(ab′)2 (Jackson ImmunoResearch Laboratories; West Grove, Pa.). […] The reaction was terminated with 1 M H3PO4, and absorbance at 450 nm with reference at 650 nm was measured on a plate reader (Molecular Devices, Sunnyvale, Calif.). Binding curves were generated by plotting the mean absorbance values from duplicates of sample dilutions against the respective sample […].

microglia = experiment: Confocal imaging of microglial uptake of Aβ1-42 oligomers; format: cell-based, rat; conditions: primary cortical microglia
Procedure: Aβ1-42 oligomers are shown in red, and blue is DAPI staining of DNA to show the microglia itself (A). An apical-to-distal slice was obtained from a three-dimensional image rendered from Z-stacks. Confocal imaging was performed on mixed cortical cells labeled for Aβ (red) and stained with DAPI (blue) as described in the Example Section under Materials and Methods. Microglia were identified and scanned for the maximum fluorescence intensity through a series of confocal stacks representing intracellular locations (B), and the total area of fluorescent signal above a minimum threshold was quantified (C). Each mark on the graph represents the total area of Aβ stained within a single cell. A minimum of 20 cells were analyzed for each treatment condition. Data were compared using one-way ANOVA followed by Tukey post-hoc multiple comparison. Means (±SEM) are shown. […] Red is Iba1 staining, green is HyLite Fluor-488-labeled Aβ1 42, and blue is DAPI staining. […] Statistical analysis was done using one-way ANOVA followed by Tukey post-hoc multiple comparison.
Cells were grown on a glass coverslips. Following treatment, cells were quickly washed with PBS and then fixed with 4% paraformaldehyde for 20 min. After thorough washes, cells were immersed in 100% methanol for 10 min at −20° C. They were then washed again and incubated in a blocking solution, PBS containing 10% normal goat serum for 1 h at room temperature. After an overnight incubation with the primary antibody, cells were washed and incubated for 2 h with the secondary antibody, then washed and mounted on glass slides using ProLong Gold antifade reagent (Invitrogen). Epifluorescence and confocal images were acquired on a LSM 700 inverted microscope from Zeiss, using a 63× lens. Fluorescence intensity was measured in cell bodies delineated by saturated epifluorescence pictures. Z-stacks were rendered into a three-dimensional image using ImageJ 1.42 (National Institutes of Health, freeware) from which an apical to distal slice containing the labeled proteins was obtained. Cells treated with HyLite Fluor-488-tagged Aβ1-42 were treated in the same way except no primary or secondary antibodies were used to label for Aβ1-42.

FcγRIIIa-V158 = target: T1, FcγRIIIa-V158 (Homo sapiens, UniProt P08637, F176V); experiment: FcγR binding ELISA, FcγRIIIa-V158; conditions: cross-linked IgG mAb
T1 construct: fusion proteins containing the extracellular domain of the receptor γ-chain
T1 sequence (P08637 17-208 F176V): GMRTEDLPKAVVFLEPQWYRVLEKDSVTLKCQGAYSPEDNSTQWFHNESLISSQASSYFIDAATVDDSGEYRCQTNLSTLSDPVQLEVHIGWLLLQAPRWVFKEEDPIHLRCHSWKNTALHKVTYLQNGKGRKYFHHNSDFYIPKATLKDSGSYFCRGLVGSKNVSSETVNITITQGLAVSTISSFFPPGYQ
Procedure: The ability of these different monoclonal antibody backbones to internalize Aβ1-42 oligomers into microglia was then compared using confocal imaging on Aβ1-42 oligomer treated primary cortical microglia. […] To verify that microglia are indeed the cells taking up Aβ1-42 complexed to monoclonal antibodies, the study was repeated using HiLyte Fluor-488 tagged Aβ1-42 and co-stained for the microglial marker Iba1.
as §1, with “FcγRIIIa).” for “FcγRIIIa). The multimeric forms of test antibodies were generated by cross linking F(ab′)2 fragment of goat anti human κ-chain (MP Biomedicals, Solon, Ohio), with test monoclonal antibody at an approximate molar ratio of 3:1. The plates were incubated with FcγRs at room temperature for 2 h.”

[2] = tested on: mixed cortical cells from P1 rats; experiment: Aβ1-42 oligomer cytotoxicity assay, MTT readout; format: cell-based, rat
Procedure: FIG. 2 provides graphs and immunocytochemical images corresponding to the experiments described in Example 6.3. […] An MTT assay was used to determine cell viability as described in the Methods section. The means (±SEM) of five independent experiments are shown. *P<0.05, **P<0.01. […] Neurotoxicity following extended Aβ1-42 oligomer treatment was tested by morphological analyses (C).
A non-specific IgG monoclonal antibody was used as a control in all experiments.
Rat primary cortical cultures were prepared from Sprague-Dawley rats (Charles River Laboratories L'Arbresle, France) at post-natal day 1, as described by Meberg and Miller (Meberg and Miller, 2003). Cerebellum and meninges were removed, and cortices were cut into small pieces and dissociated with enzymatic disruption at 37° C. in dissociation buffer (papaine, CaCl2, EDTA, and HEPES; all from Invitrogen, Carlsbad, Calif.). DNase (Invitrogen) was added for 10 min. Following dissociation, dispersed cortical neurons were plated onto poly-L-lysine (0.01%; mol. wt 150,000-300,000; Sigma) coated 6-well, 24-well, or 96-well tissue culture plates. For immunocytochemistry, cells were grown on coated glass coverslips, into 24-well plates. Cells were maintained in Neurobasal media (Invitrogen) without phenol-red, with the addition of L-glutamine (2 mM; Sigma), B27 supplement (Invitrogen), and penicillin/streptomycin (Sigma) in a humidified incubator at 37° C. and 5% CO2. Following 1 h and 30 min in culture, the media was replaced with astrocyte-conditioned medium. After a further 4 days in culture, cell proliferation was blocked by treatment with cytosine arabinoside (Ara-C) at 2.5 μM (Invitrogen). Under these culture conditions, 20% of cells were identified as neurons by NeuN/DAPI staining (not shown). Experiments using mixed cortical cultures were generally performed at days-in-vitro (“DIV”) 6 unless stated otherwise. Enriched microglia prepared from cortex and hippocampus were harvested as described for cortical cultures above. Cortex and hippocampus were put in DMEM containing high glucose and homogenized by pipetting with a 10 mL pipette and then with a syringe. The homogenate was centrifuged for 3 min at 1,000×g, and then resuspended in pre-warmed DMEM containing high glucose containing 10% FCS and penicillin/streptomycin (microglia media). The cell suspension was next transferred to a T75 tissue-culture flask and kept in a humidified incubator at 37° C. and 5% CO2 for 1 week. The flask was shaken to separate microglia from adherent cells, and collected and washed in DMEM. The resulting cells were resuspended in 1 mL microglia media, counted, and plated at 5×10^4 cells/well. To verify microglial enrichment, cells were stained with the astroglial and microglial markers GFAP and Iba1, respectively. Greater than 60% of cells stained positive for Iba1, with no cells staining for both GFAP and Iba1. Pure microglia were prepared from post-natal day 3 CX3CR1-GFP mice (Jackson Laboratories). Cortex and hippocampus were dissected and triturated in DMEM containing high glucose using a 10 mL pipette, and then with an 18 gauge needle. The homogenate was centrifuged for 3 min at 1,000 g, and then resuspended in pre-warmed DMEM containing high glucose, 10% FBS and penicillin/streptomycin (microglia media). The cell suspension was next transferred to a T75 tissue-culture flask and kept in a humidified incubator at 37° C. and 5% CO2 for 7-10 d. Microglia were isolated by shaking, collected and washed in DMEM. The resulting cells were resuspended in 1 mL microglia media, counted, and plated on tissue culture treated glass chamber slides at 5×10^4 cells/well for use in experiments.
The cytotoxicity of Aβ1-42 oligomers was tested on mixed cortical cultures at DIV 5. All antibodies, at a final concentration of 100 μg/mL, were co-incubated with Aβ1-42 oligomers for 30 min in serum-free cell culture medium at 37° C. before treatment of cells. […]

binding to FcγRIIIa-V158, hierarchy (FcγRIIIa-V158): MABT-IgG>MABT>MABT-IgG1-D265A
Substance: MABT-IgG1-D265A: same antigen binding sequences as MABT on human IgG1 backbone carrying a D265A mutation that dramatically reduces FcγR-binding
binding to FcγRs [1]: substantially reduced binding to all the FcγRs | Aβ1-42 oligomer internalization into microglia, rank order (microglia): MABT-IgG1>MABT>MABT-IgG1-D265A | antibody-mediated increase in MTT signal under p38MAPK inhibition ([2]; 10 μM Aβ1-42 oligomers, 100 μg/ml antibody, 1 μM SB239063, 24 h): no effect | reversal of Aβ1-42 oligomer-mediated toxicity ([2]; mixed primary cortical cultures, different IgG backbones): only a non-significant trend towards reversal

Reference: US9221900B2, “Methods for identifying safe and functional humanized antibodies” (AC IMMUNE S.A., priority 2010, dated 2015)
